Key:
[1] = target: Replicase polyprotein 1ab (Severe acute respiratory syndrome coronavirus 2, UniProt P0DTD1); test: Inhibition of SARS CoV-2 MPro
[2] = target: T1, 3-hydroxy-3-methylglutaryl-coenzyme A reductase (Homo sapiens, UniProt P04035); test: Inhibition of HMG-CoA Reductase (unknown origin)
T1 sequence (P04035 whole entry): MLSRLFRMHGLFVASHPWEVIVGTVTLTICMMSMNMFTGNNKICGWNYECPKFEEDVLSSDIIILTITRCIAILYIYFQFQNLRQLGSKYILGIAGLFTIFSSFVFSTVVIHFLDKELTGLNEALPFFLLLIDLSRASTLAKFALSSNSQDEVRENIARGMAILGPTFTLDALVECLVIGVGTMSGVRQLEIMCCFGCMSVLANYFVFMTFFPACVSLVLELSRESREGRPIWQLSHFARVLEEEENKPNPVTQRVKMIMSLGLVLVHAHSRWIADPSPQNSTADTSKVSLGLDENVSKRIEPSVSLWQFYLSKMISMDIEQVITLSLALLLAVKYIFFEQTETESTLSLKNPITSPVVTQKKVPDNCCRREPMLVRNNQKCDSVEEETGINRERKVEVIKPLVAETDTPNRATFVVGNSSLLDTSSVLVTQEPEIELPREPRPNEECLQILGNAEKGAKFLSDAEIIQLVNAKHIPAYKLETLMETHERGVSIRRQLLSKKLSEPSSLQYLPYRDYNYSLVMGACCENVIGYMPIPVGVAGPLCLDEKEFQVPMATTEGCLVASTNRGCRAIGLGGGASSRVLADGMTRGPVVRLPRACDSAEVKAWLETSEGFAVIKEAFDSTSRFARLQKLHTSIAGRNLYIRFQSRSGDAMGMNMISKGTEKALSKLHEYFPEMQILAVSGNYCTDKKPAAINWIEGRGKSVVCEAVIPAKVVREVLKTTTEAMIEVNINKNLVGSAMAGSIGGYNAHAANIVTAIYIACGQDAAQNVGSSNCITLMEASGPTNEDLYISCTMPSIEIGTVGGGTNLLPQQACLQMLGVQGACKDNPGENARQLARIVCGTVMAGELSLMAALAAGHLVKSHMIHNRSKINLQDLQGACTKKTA

[3] = target: Protein cereblon/Androgen receptor (Homo sapiens, UniProt P10275+Q96SW2); test: PROTAC activity at AR/CRBN in human A549 cells assessed as induction of androgen receptor degradation measured after 1 hr by Western blot analysis; format: cell-based
[4] = target: Protein cereblon/Microtubule-associated protein tau (Homo sapiens, UniProt P10636+Q96SW2); test: PROTAC activity at CRBN/tau in HEK293T cells measured for 48 hrs by immunoblot analysis; format: cell-based
[5] = target: Protein cereblon/Leucine-rich repeat serine/threonine-protein kinase 2 (Homo sapiens, UniProt Q5S007+Q96SW2); test: PROTAC activity at CRBN/LRRK2 in human MOLT-4 cells assessed as induction of protein .degradation incubated for 48 hrs by Western blot analysis; format: cell-based
[6] = target: T2, 3-hydroxy-3-methylglutaryl-coenzyme A reductase (Homo sapiens) (UniProt P04035); test: Inhibition of HMG-CoA reductase (unknown origin) at 10 uM relative to control
T2 sequence (whole entry): T1 sequence (P04035 whole entry)

[7] = target: T3, Protein cereblon/Bromodomain-containing protein 4 (Homo sapiens, UniProt O60885+Q96SW2); test: PROTAC activity at CRBN/BRD4 in human MV4-11 cells assessed as induction of degradation of BRD4; format: cell-based
[8] = target: T3, Protein cereblon/Bromodomain-containing protein 4; test: PROTAC activity at CRBN/BRD4 in human MV4-11 cells assessed as induction of degradation of BRD4 measured after 24 hrs by Western blot analysis; format: cell-based
[9] = target: T3, Protein cereblon/Bromodomain-containing protein 4; test: PROTAC activity at CRBN/BRD4 in human MV4-11 cells assessed as maximal degradation at 1 uM incubated for 30 mins by Western blot analysis relative to control; format: cell-based
[10] = target: NS3 protease (Hepacivirus C, UniProt C1KIQ2); test: Inhibition of Hepatitis C virus NS3 protease; parameters: species or system Hepacivirus hominis
Sequence of NS3 protease (C1KIQ2 whole entry): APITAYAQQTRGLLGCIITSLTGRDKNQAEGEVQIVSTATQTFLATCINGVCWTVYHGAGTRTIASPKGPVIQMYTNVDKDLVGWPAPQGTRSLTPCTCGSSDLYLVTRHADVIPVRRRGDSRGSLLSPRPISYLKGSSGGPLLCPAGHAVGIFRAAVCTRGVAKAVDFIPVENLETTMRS

T3 sequence (Q96SW2 whole entry, looked up, other chains not shown): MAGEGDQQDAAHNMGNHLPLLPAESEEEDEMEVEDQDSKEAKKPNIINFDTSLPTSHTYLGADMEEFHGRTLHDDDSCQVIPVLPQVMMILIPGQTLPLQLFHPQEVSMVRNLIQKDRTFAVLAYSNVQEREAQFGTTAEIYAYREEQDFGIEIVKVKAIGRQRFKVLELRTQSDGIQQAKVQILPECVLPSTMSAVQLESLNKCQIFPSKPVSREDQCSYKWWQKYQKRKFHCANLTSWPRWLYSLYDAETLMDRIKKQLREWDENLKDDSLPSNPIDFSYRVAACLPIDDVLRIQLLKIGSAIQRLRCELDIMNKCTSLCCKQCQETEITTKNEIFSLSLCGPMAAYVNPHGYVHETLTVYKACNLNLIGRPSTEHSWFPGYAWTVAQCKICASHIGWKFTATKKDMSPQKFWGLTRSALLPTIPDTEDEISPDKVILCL
Sequence of Protein cereblon/Androgen receptor (P10275 whole entry): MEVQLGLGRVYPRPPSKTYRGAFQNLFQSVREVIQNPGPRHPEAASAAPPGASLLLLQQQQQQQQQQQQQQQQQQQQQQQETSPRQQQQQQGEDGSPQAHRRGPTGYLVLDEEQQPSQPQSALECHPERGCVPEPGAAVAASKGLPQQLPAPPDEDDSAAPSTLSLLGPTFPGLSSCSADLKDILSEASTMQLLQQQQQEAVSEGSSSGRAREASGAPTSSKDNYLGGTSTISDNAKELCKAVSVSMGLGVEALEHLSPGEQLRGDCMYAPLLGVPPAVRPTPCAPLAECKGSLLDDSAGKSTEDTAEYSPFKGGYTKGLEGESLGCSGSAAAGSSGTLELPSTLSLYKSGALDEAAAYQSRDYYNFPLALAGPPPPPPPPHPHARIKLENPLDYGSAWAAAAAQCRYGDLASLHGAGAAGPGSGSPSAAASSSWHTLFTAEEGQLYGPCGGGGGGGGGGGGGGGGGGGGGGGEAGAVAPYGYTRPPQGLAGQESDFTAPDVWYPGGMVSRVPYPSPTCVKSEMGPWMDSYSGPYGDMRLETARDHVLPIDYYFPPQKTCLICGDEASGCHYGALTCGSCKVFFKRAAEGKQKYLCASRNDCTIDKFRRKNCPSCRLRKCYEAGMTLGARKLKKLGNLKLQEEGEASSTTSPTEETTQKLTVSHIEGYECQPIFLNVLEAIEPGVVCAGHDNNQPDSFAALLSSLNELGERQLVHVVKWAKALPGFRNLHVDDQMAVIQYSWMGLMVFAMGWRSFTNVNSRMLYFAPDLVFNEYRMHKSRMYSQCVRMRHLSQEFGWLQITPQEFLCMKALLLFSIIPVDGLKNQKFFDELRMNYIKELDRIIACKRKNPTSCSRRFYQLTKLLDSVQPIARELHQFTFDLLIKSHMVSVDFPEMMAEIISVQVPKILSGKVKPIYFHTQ
Sequence of Protein cereblon/Androgen receptor (Q96SW2 whole entry): as the sequence (Q96SW2 whole entry, looked up, other chains not shown) above
Sequence of Protein cereblon/Leucine-rich repeat serine/threonine-protein kinase 2 (Q5S007 whole entry): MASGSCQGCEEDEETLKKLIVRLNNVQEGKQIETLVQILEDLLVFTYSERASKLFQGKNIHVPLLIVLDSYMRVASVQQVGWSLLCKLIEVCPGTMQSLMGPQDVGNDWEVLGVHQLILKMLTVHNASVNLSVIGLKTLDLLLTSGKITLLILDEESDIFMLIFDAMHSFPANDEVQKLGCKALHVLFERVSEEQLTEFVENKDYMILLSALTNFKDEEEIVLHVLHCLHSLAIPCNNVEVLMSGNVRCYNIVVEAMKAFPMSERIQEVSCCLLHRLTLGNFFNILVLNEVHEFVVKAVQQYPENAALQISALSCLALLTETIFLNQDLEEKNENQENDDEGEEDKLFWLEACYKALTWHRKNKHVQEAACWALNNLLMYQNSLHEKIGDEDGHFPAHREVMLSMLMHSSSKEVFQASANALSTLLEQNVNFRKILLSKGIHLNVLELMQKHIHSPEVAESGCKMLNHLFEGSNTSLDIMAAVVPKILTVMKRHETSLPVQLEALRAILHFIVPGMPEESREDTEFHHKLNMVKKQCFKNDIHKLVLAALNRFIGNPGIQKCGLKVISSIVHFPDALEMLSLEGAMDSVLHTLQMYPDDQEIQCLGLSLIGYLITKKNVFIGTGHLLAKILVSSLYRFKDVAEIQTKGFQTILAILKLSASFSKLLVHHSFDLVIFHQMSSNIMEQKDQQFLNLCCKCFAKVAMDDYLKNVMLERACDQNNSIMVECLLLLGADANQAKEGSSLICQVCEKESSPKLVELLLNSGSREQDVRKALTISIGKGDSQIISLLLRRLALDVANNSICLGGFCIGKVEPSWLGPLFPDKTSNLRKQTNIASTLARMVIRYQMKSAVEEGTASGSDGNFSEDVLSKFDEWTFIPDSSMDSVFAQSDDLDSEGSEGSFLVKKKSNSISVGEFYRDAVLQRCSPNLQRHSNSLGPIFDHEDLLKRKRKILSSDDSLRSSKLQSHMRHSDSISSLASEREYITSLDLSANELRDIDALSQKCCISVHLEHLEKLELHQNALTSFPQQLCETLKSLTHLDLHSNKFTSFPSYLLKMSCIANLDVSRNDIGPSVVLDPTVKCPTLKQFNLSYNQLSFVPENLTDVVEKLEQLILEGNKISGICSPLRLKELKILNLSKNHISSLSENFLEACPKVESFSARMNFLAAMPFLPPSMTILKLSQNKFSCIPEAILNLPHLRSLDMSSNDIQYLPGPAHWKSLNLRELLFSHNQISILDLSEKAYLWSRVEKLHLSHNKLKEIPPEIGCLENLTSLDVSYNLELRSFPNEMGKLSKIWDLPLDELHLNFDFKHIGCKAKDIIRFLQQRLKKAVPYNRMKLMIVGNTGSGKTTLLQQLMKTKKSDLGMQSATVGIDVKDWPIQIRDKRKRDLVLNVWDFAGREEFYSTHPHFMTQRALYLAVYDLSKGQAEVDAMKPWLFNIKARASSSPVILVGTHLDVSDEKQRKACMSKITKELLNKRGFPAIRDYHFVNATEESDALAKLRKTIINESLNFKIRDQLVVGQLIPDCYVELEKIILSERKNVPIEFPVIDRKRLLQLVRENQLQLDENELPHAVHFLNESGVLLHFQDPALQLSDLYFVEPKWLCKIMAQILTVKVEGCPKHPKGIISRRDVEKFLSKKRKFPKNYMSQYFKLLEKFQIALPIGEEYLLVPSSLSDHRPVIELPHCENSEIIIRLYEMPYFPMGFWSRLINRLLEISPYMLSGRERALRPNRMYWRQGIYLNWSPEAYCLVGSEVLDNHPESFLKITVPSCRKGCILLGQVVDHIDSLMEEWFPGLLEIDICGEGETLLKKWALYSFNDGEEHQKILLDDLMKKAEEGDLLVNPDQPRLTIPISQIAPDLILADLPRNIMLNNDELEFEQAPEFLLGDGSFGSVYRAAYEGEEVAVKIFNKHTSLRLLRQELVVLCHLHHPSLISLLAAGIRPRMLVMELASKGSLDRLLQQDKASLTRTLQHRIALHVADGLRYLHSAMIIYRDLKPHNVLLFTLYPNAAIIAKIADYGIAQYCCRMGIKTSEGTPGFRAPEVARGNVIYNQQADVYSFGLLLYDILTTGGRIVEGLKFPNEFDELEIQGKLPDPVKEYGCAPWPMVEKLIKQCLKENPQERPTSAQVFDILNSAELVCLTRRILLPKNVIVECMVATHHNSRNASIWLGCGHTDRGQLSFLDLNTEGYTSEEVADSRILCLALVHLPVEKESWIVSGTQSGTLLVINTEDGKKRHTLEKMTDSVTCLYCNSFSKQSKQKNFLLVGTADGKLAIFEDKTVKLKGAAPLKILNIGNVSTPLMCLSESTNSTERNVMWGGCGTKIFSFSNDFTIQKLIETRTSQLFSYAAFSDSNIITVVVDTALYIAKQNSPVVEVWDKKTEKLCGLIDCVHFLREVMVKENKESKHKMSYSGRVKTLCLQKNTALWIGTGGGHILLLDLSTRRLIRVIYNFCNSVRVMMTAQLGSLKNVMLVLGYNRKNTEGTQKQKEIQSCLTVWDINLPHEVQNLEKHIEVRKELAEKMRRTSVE
Sequence of Protein cereblon/Leucine-rich repeat serine/threonine-protein kinase 2 (Q96SW2 whole entry): as the sequence (Q96SW2 whole entry, looked up, other chains not shown) above
Sequence of Protein cereblon/Microtubule-associated protein tau (P10636 whole entry): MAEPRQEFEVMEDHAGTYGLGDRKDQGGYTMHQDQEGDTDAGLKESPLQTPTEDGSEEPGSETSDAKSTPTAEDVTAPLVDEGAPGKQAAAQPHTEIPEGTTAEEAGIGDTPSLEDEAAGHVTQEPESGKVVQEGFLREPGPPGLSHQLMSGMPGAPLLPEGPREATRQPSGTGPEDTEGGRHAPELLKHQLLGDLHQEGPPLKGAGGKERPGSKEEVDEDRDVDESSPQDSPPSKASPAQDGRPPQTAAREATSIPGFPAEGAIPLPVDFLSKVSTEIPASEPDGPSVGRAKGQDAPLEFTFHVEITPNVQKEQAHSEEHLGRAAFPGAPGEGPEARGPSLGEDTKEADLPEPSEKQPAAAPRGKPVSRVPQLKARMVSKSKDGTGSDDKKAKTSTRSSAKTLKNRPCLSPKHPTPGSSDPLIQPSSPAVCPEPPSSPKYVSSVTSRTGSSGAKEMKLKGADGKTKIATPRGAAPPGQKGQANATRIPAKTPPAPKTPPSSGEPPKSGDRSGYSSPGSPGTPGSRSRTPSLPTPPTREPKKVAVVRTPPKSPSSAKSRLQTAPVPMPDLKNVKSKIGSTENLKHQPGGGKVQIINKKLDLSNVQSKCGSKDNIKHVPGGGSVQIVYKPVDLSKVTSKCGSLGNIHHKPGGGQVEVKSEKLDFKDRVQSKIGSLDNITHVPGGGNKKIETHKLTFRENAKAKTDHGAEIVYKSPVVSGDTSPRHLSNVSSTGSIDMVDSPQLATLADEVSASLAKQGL
Sequence of Protein cereblon/Microtubule-associated protein tau (Q96SW2 whole entry): as the sequence (Q96SW2 whole entry, looked up, other chains not shown) above

Compound `C[C@@H](OC(C)(C)C)[C@H](NC(=O)OCc1cccc(OCCCCCOc2cccc3c2C(=O)N(C2CCC(=O)NC2=O)C3=O)c1)C(=O)N[C@H](CN[C@H](C=O)C[C@@H]1CCNC1=O)CC1CCCCC1` (stereo partly specified) has an EC50 [1] of 290 nM.

Work on `Cc1ncsc1-c1ccc(CNC(=O)[C@@H]2C[C@@H](O)CN2C(=O)[C@@H](NC(=O)CCCCCCCCCCNC(=O)O[C@@H]2C[C@H](C)C=C3C=C[C@@H](C)[C@@H](CC[C@@H](O)C[C@@H](C)CC(=O)O)[C@@H]32)C(C)(C)C)cc1` yielded an IC50 [2] of 120 nM.

`CC1(C)C(=O)N(c2ccc(C#N)c(C(F)(F)F)c2)C(=O)N1c1ccc(-c2ccc(O[C@@H]3CCN(C(=O)C4CCN(c5ccc6c(c5)C(=O)N(C5CCC(=O)NC5=O)C6=O)CC4)C3)cc2)cc1` (stereo partly specified) showed a DC50 [3] of 75 nM.

With `O=C(CCc1ccc2[nH]c3ccncc3c2c1)NCCOCCCOCCNc1cccc2c1C(=O)N(C1CCC(=O)NC1=O)C2=O` (stereo unspecified) the DC50 [4] was 75 nM.

In the case of `CC(C)C[C@H](CCOCCOCCOCCNc1ccc(-c2cc(-c3cccc(Br)c3)[nH]n2)cc1)NC(=O)[C@H](O)[C@@H](N)Cc1ccccc1`, the DC50 [5] is reported as 5.04 µM.

Compound `Cc1ncsc1-c1ccc(CNC(=O)[C@@H]2C[C@@H](O)CN2C(=O)[C@@H](NC(=O)CCCCCCCCCCNC(=O)O[C@@H]2C[C@H](C)C=C3C=C[C@@H](C)[C@@H](CC[C@@H]4C[C@@H](O)CC(=O)O4)[C@@H]32)C(C)(C)C)cc1` has an inhibition [6] of 56%.

`Cc1cc(-c2cc(NC(=O)CCC(=O)NCCOCCOCCNc3ccc4c(c3)C(=O)N(C3CCC(=O)NC3=O)C4=O)ccc2Oc2ccccc2)n2cc[nH]c(=O)c12` (stereo unspecified) was tested, and the DC50 [7] was 0.75 nM.

`Cc1sc2c(c1C)C(c1ccc(Cl)cc1)=N[C@@H](CC(=O)NCCCCCNCCOc1ccc(C3CC(=O)NC(=O)C3)cc1)c1nnc(C)n1-2` showed a DC50 [8] of less than 1 nM and an Emax [9] of 99%.

`Cc1ncsc1-c1ccc(CNC(=O)[C@@H]2C[C@@H](O)CN2C(=O)[C@@H](NC(=O)CCOCCOCCOCCNC(=O)[C@]23CCC(C)(C)C[C@H]2[C@H]2CC[C@@H]4[C@@]5(C)CC[C@H](O)C(C)(C)[C@@H]5CC[C@@]4(C)[C@]2(C)CC3)C(C)(C)C)cc1` showed an IC50 [1] of 1140 nM.

With `CCC[C@H](NC(=O)[C@H]1N(C(=O)[C@@H](NC(=O)[C@@H](NC(=O)c2cnc(CC(=O)NCCOCCOCCOc3cc4c5c(cccc5c3)C(=O)N(C3CCC(=O)NC3=O)C4=O)cn2)C2CCCCC2)C(C)(C)C)C[C@]2(C)CCC[C@]12C)C(=O)C(=O)NC1CC1` (stereo partly specified) the EC50 [10] was 50 nM.

— ChEMBL document CHEMBL6127072, “PROTAC unleashed: Unveiling the synthetic approaches and potential therapeutic applications” (Eur J Med Chem, 2024)
